Source: article PMC3064895 (Cancer Chemotherapy and Pharmacology, 2010)
Where “and” joins values, the source holds several entries; their conditions need not be identical. Identical values can stand only once. Entries after “also recorded” stand apart in the source; their conditions may differ. Like-named read-outs stand apart in the source and are kept apart here.

How the values were obtained:
[1] = QT/QTc interval on 12-lead Holter ECG; format: in vivo, patients with advanced cancer
[2] = Plasma pharmacokinetics at steady state of sorafenib; format: in vivo, patients with advanced cancer; details: for AUC / Cmax: geometric mean (% CV); for AUC: AUC(0–12), n = 14; for Cmax: C max
[3] = cited from earlier work; for Incidence of treatment-emergent cardiac ischemia/infarction AEs: final safety analysis
[4] = Supine blood pressure and heart rate; format: in vivo, patients with advanced cancer
[5] = 2 h post-dose, Day 1 of cycle 2
[6] = 4 h post-dose, Day 1 of cycle 2
[7] = 6 h post-dose, Day 1 of cycle 2
[8] = 8 h post-dose, Day 1 of cycle 2
[9] = 12 h post-dose, Day 1 of cycle 2
[10] = at t max, Day 1 of cycle 2, listed as Sorafenib
[11] = over 12-h period, Day 1 of cycle 2
[12] = over 12-h period, Day 1 of cycle 2, listed as Sorafenib
[13] = human, plasma, oral, 400 mg, plasma, Day 1 of cycle 2, sorafenib 400 mg bid
[14] = human, plasma, oral, 400 mg, plasma, Day 1 of cycle 5, sorafenib 400 mg bid
[15] = plasma, Day 1 of cycle 2, sorafenib 400 mg bid
[16] = plasma, Day 1 of cycle 5, sorafenib 400 mg bid
[17] = retrospective analysis of 18 studies of sorafenib monotherapy

CNC(=O)c1cc(Oc2ccc(NC(=O)Nc3ccc(Cl)c(C(F)(F)F)c3)cc2)ccn1 [sorafenib]
Mean (SD) change from baseline in QTcB [1, 5]: 0.5 (18.0) ms | Mean (SD) change from baseline in QTcB [1, 6]: 2.0 (20.2) ms | Mean (SD) change from baseline in QTcB [1, 7]: 1.6 (17.3) ms | Mean (SD) change from baseline in QTcB [1, 8]: 0.2 (16.1) ms | Mean (SD) change from baseline in QTcB [1, 9]: 2.9 (17.2) ms | Mean (SD) change from baseline in QTcB ([1]; Pre-dose, Day 1 of cycle 2): 1.1 (18.3) ms | Patients with a QTcB or QTcF value >500 ms ([1]; at any time during the study): No patient | Mean (SD) change from baseline in QTcB ([1]; at t max, Day 1 of cycle 2): 4.2 ms and 4 ms | Mean (SD) change from baseline in QTcB [1, 10]: 4.2 (19.2) ms | Patients with a ≥60-ms change from baseline in QTcB or QTcF ([1]; during the study): no patient | Mean (SD) maximal change from baseline in QT [1, 11]: 32.9 (24.1) ms | Mean (SD) maximal change from baseline in QTcB [1, 11]: 16.4 ms and 16 ms | Mean (SD) maximal change from baseline in QTcF [1, 11]: 19.8 ms and 20 ms | Mean (SD) maximal change from baseline in QTcB [1, 12]: 16.4 (15.3) ms | Mean (SD) maximal change from baseline in QTcF [1, 12]: 19.8 (14.4) ms | Mean increases from baseline by time point, QTcB (range) ([1]; over 12 h, after 1 cycle): 0.2 to 2.9 ms | Mean increases from baseline by time point, QTcF (range) ([1]; over 12 h, after 1 cycle): 4.2 to 5.8 ms | QTcF value, individual patient ([1]; patient with maximum prolongation, after 1 cycle, baseline 396.7 ms): 446.3 ms | Tmax ([2]; human, plasma, oral, 400 mg): 2 h | AUC [2, 13]: 42800 ng·h/mL | AUC [2, 14]: 36000 ng·h/mL | Cmax [2, 13]: 5400 ng/mL | Cmax [2, 14]: 4300 ng/mL | AUCnorm, geometric mean (% CV) [2, 15]: 7.5 (48.4) kg h/L | C max,norm, geometric mean (% CV) [2, 15]: 1.0 (64.9) kg/L | C trough, geometric mean (% CV) [2, 15]: 4.1 (73.6) mg/L | C trough,norm, geometric mean (% CV) [2, 15]: 0.7 (85.4) kg/L | AUCnorm, geometric mean (% CV) [2, 16]: 6.3 (69.8) kg h/L | C max,norm, geometric mean (% CV) [2, 16]: 0.8 (72.5) kg/L | C trough, geometric mean (% CV) [2, 16]: 3.2 (73.8) mg/L | C trough,norm, geometric mean (% CV) [2, 16]: 0.6 (83.8) kg/L | t max, median (range) [2, 16]: 2.00 (0–8.05) h | Relationship between PK parameters (AUC(0–12), C max) and cardiovascular safety parameters (QT/QTc, LVEF, BP, HR) ([2]; sorafenib and its main metabolites, any time point, data not shown): No correlation; also recorded: No relationship was observed | Patients reporting cardiac ischemia/infarction AEs ([3]; RCC phase III, patients who crossed over from placebo to sorafenib): 1.4% | Incidence of treatment-emergent cardiac ischemia/infarction AEs ([3]; randomized phase III HCC study, placebo […]): 2.7% | Incidence of treatment-emergent cardiac ischemia/infarction AEs ([3]; randomized phase III RCC study, placebo 0.4%): 2.9% | Overall rate of CHF [3, 17]: 1.6% | Overall rate of MI [3, 17]: 1.5% | Treatment-emergent hypertension [3, 17]: 18.6% | Mean (SD) change from baseline in supine HR [4, 5]: −5.4 (9.2) bpm | Mean (SD) change from baseline in supine HR ([4]; 2 h post-dose, Day 1 of cycle 5): −0.03 (7.1) bpm | Mean (SD) change from baseline in supine HR [4, 6]: −4.0 (8.8) bpm | Mean (SD) change from baseline in supine HR ([4]; 4 h post-dose, Day 1 of cycle 5): 0.1 (9.2) bpm | Mean (SD) change from baseline in supine HR [4, 7]: −6.0 bpm | Mean (SD) change from baseline in supine HR ([4]; 6 h post-dose, Day 1 of cycle 2, listed as Sorafenib): −6.0 (8.9) bpm | Mean (SD) change from baseline in supine HR ([4]; 6 h post-dose, Day 1 of cycle 5): 0 (8.7) bpm | Mean (SD) change from baseline in supine HR [4, 8]: −4.2 (11.3) bpm | Mean (SD) change from baseline in supine HR ([4]; 8 h post-dose, Day 1 of cycle 5): 0.7 (8.6) bpm | Mean (SD) change from baseline in supine HR [4, 9]: −5.8 (13.3) bpm | Mean (SD) change from baseline in supine HR ([4]; 12 h post-dose, Day 1 of cycle 5): 1.6 (10.0) bpm | Patients with BP ≥150/90 mm Hg at t max ([4]; Day 1 of cycle 5, sorafenib 400 mg bid): 2 n (%) | Mean (SD) change from baseline in supine HR ([4]; Pre-dose, Day 1 of cycle 2): −4.4 (8.1) bpm | Mean (SD) change from baseline in supine HR ([4]; Pre-dose, Day 1 of cycle 5): −2.9 (10.0) bpm | Patients who exceeded 150/90 mm Hg (both systolic and diastolic) ([4]; after 1 cycle): Four | Patients who exceeded a systolic reading of 150 mm Hg only ([4]; after 1 cycle): 4 patients | Patients with a diastolic reading surpassing 90 mm Hg only ([4]; after 1 cycle): 2 patients | Patients who had become hypertensive ([4]; after 1 cycle (6% at baseline)): Thirty-two | Increase in both systolic and diastolic BP at t max ([4]; after both 1 and 4 cycles): 11–12 mm Hg | Patients hypertensive ([4]; at cycle 4): 13% | Mean (SD) change from baseline in supine HR ([4]; at t max, Day 1 of cycle 2): −6.6 bpm | Mean (SD) change from baseline in supine HR [4, 10]: −6.6 (10.6) bpm | Mean (SD) change from baseline in supine HR ([4]; at t max, Day 1 of cycle 5): −3.3 bpm | Mean (SD) change from baseline in supine HR ([4]; at t max, Day 1 of cycle 5, listed as Sorafenib): −3.3 (7.3) bpm | Patients who started receiving antihypertensive medications during treatment ([4]; during treatment with sorafenib): Three | Mean (SD) maximal change from baseline in supine HR [4, 11]: 2.9 (±8.2) bpm | Mean (SD) maximal change from baseline in supine diastolic BP [4, 11]: 19.8 (±9.0) mm Hg | Mean (SD) maximal change from baseline in supine systolic BP [4, 11]: 27.7 (±18.5) mm Hg
